How the values were obtained:
[1] = target: T1, ileal bile acid active uptake system (Rattus norvegicus, UniProt Q62633); test: In vivo inhibition of bile acid reabsorption (75SeHCAT, rat); conditions: male Spraque-Dawley rats, oral gavage twice daily for two days, fecal 75SeHCAT over 24 hours, n=12 total
T1 construct: from tissue; host or cells: whole animal (rat ileum, in vivo)
T1 sequence (Q62633 1-348): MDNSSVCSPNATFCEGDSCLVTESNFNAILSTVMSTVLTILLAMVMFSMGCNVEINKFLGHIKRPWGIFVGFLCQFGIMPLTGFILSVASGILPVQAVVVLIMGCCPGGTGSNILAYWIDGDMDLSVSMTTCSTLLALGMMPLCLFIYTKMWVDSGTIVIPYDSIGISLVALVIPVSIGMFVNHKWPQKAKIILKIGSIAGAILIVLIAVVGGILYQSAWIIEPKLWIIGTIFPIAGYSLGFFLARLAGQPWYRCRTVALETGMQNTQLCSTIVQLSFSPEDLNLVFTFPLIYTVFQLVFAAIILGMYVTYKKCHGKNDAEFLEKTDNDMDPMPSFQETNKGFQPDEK
Description: (I) In vivo Inhibition of Bile Acid Reabsorption
Male Spraque-Dawley rats (CD, Charles River) weighing 220-260 gm were housed in individual cages and fed normal chow. The rats were dosed by oral gavage (1 ml/100 gm body weight) with test compounds as a suspension in 0.5% methylcellulose at 9:00 a.m. and 3:30 p.m. for two days. The control group received 0.5% methylcellose. Two hours after the morning dose on day two, the rats were given a trace amount (1.3 nmoles) of 23,25−^75Se-homocholic acid taurine (^75SeHCAT) in 1.0 ml saline orally. ^75SeHCAT, a synthetic gamma emitting bile acid analog which is absorbed by the ileal bile acid active uptake system similar to taurocholic acid, has been used clinically as a measure of ileal bile acid absorption. Feces were collected over the 24 hours following ^75SeHCAT administration. Fecal content of ^75SeHCAT was determined using a Packard Auto-Gamma 5000 Series gamma-counter. The % inhibition of bile acid reabsorption is calculated as follows: [formula]
The percent of inhibition of bile acid reabsorption in the rat using ^75SeHCAT was used to determine the ED30 (the dose required to give 30% inhibition of bile acid uptake). […]

male Spraque-Dawley rats = test: Percent cholesterol lowering in rats fed a cholesterol-cholic acid enriched diet; format: in vivo, rat; conditions: gavage b.i.d. for 3 days and once on day four, hypercholesterolemic rats, serum lipids four hours after last dose
Description: (II) Percent Cholesterol Lowering in Rats
Hypercholesterolemia was induced in male Spraque-Dawley rats (CD, Charles River weighing 200-300 g) by administration of a diet enriched in cholesterol and cholic acid. The diet was prepared from Wayne Laboratory Lab Blocks ground into meal and mechanically mixed with powdered cholesterol and cholic acid to a final concentration (by weight) of 1% and 0.5%, respectively. Prior to administration of the diet, blood was collected under halothane anesthesia by cardiac puncture to determine baseline lipid levels. Serum was obtained for analysis of total cholesterol (TC), high density lipoprotein cholesterol (HDL-C), and dextran-precipitable lipoprotein-cholesterol (VLDL+LDL). The rats were divided into groups so that each group had similar baseline serum lipid levels. Five days following the initial sampling for serum lipids the rats were fed ab lib the cholesterol-cholic acid enriched diet and compound administration was begun. The compound was administered by gavage as a suspension in 0.5% methylcellulose (1 ml/100 g body weight) b.i.d. at 9:00 a.m. and 3:00 p.m. for 3 days and at 9:00 a.m. on day four. Control animals received 0.5% methylcellulose only. The rats were bleed four hours after the last dose for the determination of serum lipids. All blood collections were done after a 4-h fast. Serum TC concentrations were determined enzymatically using reagents obtained from Seragen Diagnostics (2). Serum HDL-C was determined after selective precipitation of VLDL and LDL with dextran sulfate and magnesium sulfate, with reagents from Seragen (3). HDL-C was determined in the supernatant. VLDL+LDL cholesterol was determined as the difference between total and HDL-C. The following results were obtained for Example 1 and Example A, as defined above.

Compound	ED30 (the dose required to give 30% inhibition of bile acid uptake) [1] [mg/kg]	Percent cholesterol lowering (male Spraque-Dawley rats; dose 0.03 mg/kg) [%]	Percent cholesterol lowering (male Spraque-Dawley rats; dose 0.1 mg/kg) [%]	Percent cholesterol lowering (male Spraque-Dawley rats; dose 0.3 mg/kg) [%]	melting point [°C]
CCCCC1(CC)CN(c2ccccc2)c2cc(Br)c(O)cc2S(=O)(=O)C1 (stereo not drawn) [Example A, 2,3,4,5-tetrahydro-3-ethyl-3-butyl-5-phenyl-7-bromo-8-hydroxy-1,5-benzothiazepine-1,1-dioxide, reference compound]	0.17	14	17	53	
CCCC[C@@]1(CC)CN(c2ccccc2)c2cc(Cl)c(O)cc2S(=O)(=O)C1 [Example 1, (3S)-2,3,4,5-Tetrahydro-3-ethyl-3-butyl-5-phenyl-7-chloro-8-hydroxy-1,5-benzothiazepine-1,1-dioxide]	0.048	48	56	81	179.6 to 180.2

From patent US6465451B1, “Hypolipidemic benzothiazepine compounds” (SmithKline Beecham Corporation, priority 1998, dated 2002)
